Where two headings read alike, the source gives them in different places.

One series can be described thus: Acute Toxicity Test. The format is in vivo. To be noted: Crj:CD1 male mice, tail vein, observed for 7 days. How it is done: The compounds of the invention were tested for their acute toxicity through intravenous administration thereof to mice. Four Crj:CD1 male mice formed one test group, and some test groups of those mice were used (the mean body weight of the mice of each group was from 31 to 32 g). A test compound was dissolved in a mixture of 1 N HCl, polyethylene glycol-400 and distilled water, or dissolved in DMSO, and then diluted with distilled water. This was administered to each mouse via its tail vein.

A further series has as its target T1, Amyloid β protein 1-40 (Homo sapiens, UniProt P05067).
T1 construct: Amyloid β protein 1-40 (bought from Peptide Laboratory); purchased Peptide Laboratory
Put plainly: Fluorescence Congo Red Method. It counts as binding. To be noted: 1 h, compound 10 μM, amyloid β protein 5 μM. How it is done: Next described is a screening method for the compounds of the invention. Some of the compounds of the invention could not be screened according to a Thioflavin T method, since their fluorescence wavelength overlaps with that of Thioflavin T. For such compounds, the following novel screening method was introduced. (1) Amyloid β protein 1-40 (bought from Peptide Laboratory) was dissolved in a phosphate buffer (pH 7.4) and left at 37° C. for 4 days. (2) 50 μl of Congo red dissolved in the buffer was applied to a 96-well microplate (final concentration, 0.1, 0.3, 1 μM). (3) 100 μl of amyloid β protein was added to it (final concentration 5 μM), and left as such for 30 minutes. (4) 100 μl of a test compound dissolved in the buffer was added to it (final concentration, 10 μM, and left as such for 60 minutes. (5) Using a fluorescence microplate reader (Spectra Max 190 by Molecular Device), the sample was analyzed at the optimum exciting wavelength and the test wavelength that had been previously determined. (6) The fluorescence intensity in the presence of the test compound, amyloid β protein and Congo red is represented by A; that in the presence of the test compound and Congo red is by B; that in the presence of the test compound and amyloid β protein is by C; and that in the presence of only the test compound is by D. The β structure recognition of the test compound is computed according to the following formula: β structure recognition (%) of test compound={(A−B)/(C−D)}×100. (7) It may be said that the test compound having a higher β structure recognition percentage may have higher binding specificity to amyloid β protein.

A short description of series [1]: Brain Permeability Test Through HPLC. The note with it: mice, 2 minutes after intravenous administration. It counts as in vivo. The protocol:
A compound of the invention was intravenously administered to mice, and tested for its in-vivo brain permeability in the mice.
(1) Slc:ICR mice (by Nippon SLC) (body weight, 30 to 40 g; n=3) were used.
(2) A test compound was dissolved in a mixture of 5% Tween 80-5% ethyl alcohol-5% 1 N HCl-physiological saline water, and injected into the test mouse via its tail vein. Two minutes after the administration, the blood was collected from the test mouse under ether anesthesia via its abdominal aorta using a heparin-steeped syringe, and the brain material was collected from it.
(3) After collected, the blood was centrifuged at 4° C. and 14,000 rpm for 10 minutes, and the supernatant was stored at −80° C. as plasma. After collected, the brain material (including the cerebellum) was stored at −80° C.
(4) 0.3 ml of acetonitrile was added to 0.1 ml of the plasma, then vortexed, and centrifuged at 4° C. and under 10,000 G for 5 minutes. After centrifuged, 0.2 ml of the resulting supernatant was transferred into Mini-Uniprep (Whatman), then 0.2 ml of 20 mM phosphate buffer was added to it and filtered. 0.2 ml of the resulting filtrate was analyzed through HPLC (Shiseido Nanospace SI-2; pump, 3001; UV-VIS detector, 3002; column thermostat, 3004; fluorescence detector, 3013).
(5) 2 ml of methanol was added to the brain, homogenized, and centrifuged at 4° C. and 3000 or 4000 rpm for 10 minutes. After centrifuged, 500 μl of the resulting supernatant was diluted 10-fold with 20 mM phosphate buffer. (i) 2 to 3 ml of acetonitrile, (ii) 2 to 5 ml of methanol and (iii) 4 to 6 ml of ultra-pure water were led through a cartridge for solid-phase extraction (J. T. Baker Speedisk) in that order, and the 10-fold diluted supernatant solution was led through it. Via an empty syringe, air was applied to the cartridge for solid-phase extraction, two or three times to remove water, and then this was eluted with about 500 μl of acetonitrile or methanol, and the eluate was diluted 2-fold with 20 mM phosphate buffer. 0.2 ml of the resulting solution was analyzed through HPLC.
(6) The test compound content in the plasma and in the brain was determined relative to the dose of the compound (% ID (injected dose)/g or ml).

Series [2] relates to histidine-requiring Salmonella typhimurium TA100 and TA98 strains. The experiment in a line: Mutagenicity Test (reverse mutation test). The format is cell-based. The protocol:
In view of their use, it is desirable that the compounds of the invention have no mutagenicity or have little mutagenicity to a level causing no problem. For investigating the gene mutagenesis of the compounds of the invention, herein carried out was a reverse mutation test with histidine-requiring Salmonella typhimurium TA100 and TA98 strains. Two tests were carried out. One is a test for dose determination test; and the other is for mutagenicity.
The test methods and the mutagenicity of the compounds of the invention are mentioned below. In the dose determination test, six doses of 0.160, 0.800, 4.00, 20.0, 100 and 500 μg/plate (common ratio 5) were tried.
As a result of the dose determination test, when the mutagenicity of the test compound was admitted, then the actual test for mutagenicity was carried out, using the dose capable of giving an accurate dose-reaction curve. When no mutagenicity of the test compound was admitted in the dose determination test and when the growth inhibition of the test cells was admitted therein, then the dose to present the growth inhibition was taken as the maximum dose; and when the growth inhibition was not admitted, then a dose of 5000 μg/plate was taken as the maximum dose. With that, the actual test for mutagenicity was carried out on the level of 6 doses (common ratio 2).
First, a test compound was dissolved or suspended in DMSO, then diluted in order to prepare test compound liquids having a varying concentration.
100 μl of a test compound liquid or a negative control (DMSO) solution was put into a sterilized test tube. Then, for the case in the absence of a metabolic activation system (−S9mix), 500 μl of 0.1 mol/liter sodium-phosphate buffer (pH 7.4) was added to it; and for the case in the presence of a metabolic activation system (+S9mix), 500 μl of S9mix was added to it.
Next, 100 μl of the test strain suspension that had been cultivated with shaking at 37° C. for 8 hours was added to it, and preincubated in a shaking thermostat at 37° C. for 20 minutes. After shaken, 2 ml of top agar was added to it, and the contents were mixed.
Next, the mixture was poured onto a minimal glucose agar plate medium (plate) and spread uniformly thereon, then the top agar was solidified, and the plate was transferred into a thermostat and incubated at 37° C. for 48 hours.
Then, the number of the colonies grown through reverse mutation was counted.
For counting it, […]. After area correction and miss-counting correction, the number of the colonies was computed. When the colony analyzer could not be used owing to the deposition of the test compound or the cell growth inhibition, then the number of the colonies was counted with the naked eye.
In case where the number of the colonies through reverse mutation increased two times or more that of the negative control and where the dose dependency or the reproducibility of the increase was admitted, then the tested sample was decided as positive. When the sample was is decided as positive, then the relative activity that indicates the relative comparative value of the intensity of the mutagenicity of the test compound was obtained according to the following formula: Relative Activity={(number of colonies per plate having the concentration)−(number of colonies per negative control plate)}/the value of concentration (mg/plate).

Series [3] deals with T2, amyloid β protein in the brain section of an Alzheimer disease patient (Homo sapiens, UniProt P05067).
T2 construct: from tissue; host or cells: paraffin-embedded temporal lobe and hippocampus of Alzheimer disease patients
T2 sequence (P05067 672-713 limits assumed): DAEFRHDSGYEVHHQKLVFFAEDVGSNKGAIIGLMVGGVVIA
Put plainly: Staining test on a brain section of an Alzheimer disease patient: amyloid β protein. To be noted: 100 μM solution in 50% ethanol, 10 minutes, paraffin brain section. The format is binding. An excerpt: (1) Brain specimens at the temporal lobe and the hippocampus of patients to which a definitive diagnosis of Alzheimer disease had been given, and those of normal senile persons were used. The specimens were given by our coworker, Fukushimura Hospital, Longevity Medicine Institute, and we were given their consent of use of the specimens for our study purpose by the bereaved of the patients (Fukushimura Hospital Ethical Review Board Approval No. 20).
(2) The paraffin-embedded brain tissue was cut Into slices having a thickness of 6 μm or 8 μm, and extended and dried on a slide. The paraffin brain section was steeped for paraffin removal in xylene twice for 10 minutes, 100% ethanol twice for 5 minutes, 90% ethanol for 5 minutes and running water for 10 minutes in that order.
(3) For pretreatment prior to the staining treatment with a compound of the invention, the sections were steeped for autofluorescence removal with lipofuscin. First, the paraffin-removed sections were dipped in 0.25% KMnO4 solution for 20 minutes. These were washed with PBS, twice for 2 minutes, then dipped in 0.1% K2S2O5/oxalic acid solution for about 5 seconds, and then further washed with PBS, three times for 2 minutes.
(4) About 150 μl of a 100 μM solution of a compound of the invention dissolved in 50% ethanol was dropwise applied to the section and reacted for 10 minutes. After dipped five times in tap water, the section was entrapped with Fluor Save Reagent (Calbiochem), and analyzed through microscopy with a fluorescence microscope (Nikon, Eclipse 80i). The images were taken with a digital camera (Nikon Dxm 1200F or Photometrics' Cool SNAP ES).
(1) After paraffin removal, the sections were washed in distilled water, twice for 2 minutes. Then, using ImmunoPen, the tissue was marked with a surrounding line; about 150 μl of formic acid was dropwise applied to the section and statically left at room temperature for 5 minutes. The section was washed with tap water for 5 minutes, then dipped in cold PBS-Tween 20 for 2 minutes, and thereafter about 150 μl of 0.05% trypsin solution was dropwise applied to it and reacted at 37° C. for 15 minutes.
(2) In an ice bath, this was washed with cold PBS-Tween 20, twice for 5 minutes, and then 2 drops of blocking serum were applied to it and reacted at 37° C. for 30 minutes. Excess water was removed, and then about 150 μl of a specific antibody to amyloid β protein, 6F/3D (by DAKO, 1/50 dilution) was dropwise applied to it, and reacted at 37° C. for 1 hour.
(3) Further, this was washed with cold PBS-Tween 20, 5 times for 2 minutes, and then 2 drops of an anti-mouse IgG (H+L), goat, biotin-binding solution were applied to it and reacted at 37° C. for 1 hour. Then, this was washed with cold PBS-Tween 20, three times for 2 minutes, and 2 drops of an ABC solution (streptoavidin-biotin-peroxidase composite solution) were applied to it, and left statically as such for 30 minutes. Again this was washed with cold PBS-Tween 20, three times for 2 minutes, and then about 150 μl of a DAB solution (10 mg of DAB was dissolved in 20 ml of 0.05 mol/liter tris-HCl buffer, and just before use, 100 μl of 3% hydrogen peroxide water was added to it) was dropwise applied to it for sufficiently staining it. Then, this was washed with distilled water for 1 minute to stop the reaction, then entrapped and observed through microscopy.

Setting [4] is: Congo red 0.1 μM, read-out: Binding Percentage of Compound in the presence of 0.1 μM CR.
[5] abbreviates: Congo red 0.3 μM, read-out: Binding Percentage of Compound in the presence of 0.3 μM CR.
Where [6] appears, read: Congo red 1 μM, read-out: Binding Percentage of Compound in the presence of 1 μM CR.

T1 sequence (P05067 672-711): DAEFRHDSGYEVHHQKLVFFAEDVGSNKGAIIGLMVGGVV

On to `OCC(CF)Oc1ccc2nc(/C=C/c3cnc(N4CCCOC4)s3)oc2c1` (stereo not shown) [THK-757, (E)-6-[(1-fluoromethyl-2-hydroxy)ethoxy]-2-[2-[2-([1,3]oxadinan-3-yl)-thiazol-5-yl]ethenyl] benzoxazole], for which, in “Acute Toxicity Test”, the “Maximum Permissible Dose (mg/kg, intravenous administration)” value (“Maximum Permissible Dose” below) is “≧10 mg/kg”. For the same compound, the activity at 10 µM was 52.4% at Amyloid β protein 1-40 (setting [4]), 24.8% at Amyloid β protein 1-40 (setting [5]) and 10.3% at Amyloid β protein 1-40 (setting [6]).

Consider `CN1CCN(c2ncc(/C=C/c3nc4ccc(OC(CO)CF)cc4o3)s2)CC1` (stereo not shown) [THK-707, (E)-6-[(1-fluoromethyl-2-hydroxy)ethoxy]-2-[2-[2-(4-methylpiperazin-1-yl)thiazol-5-yl]ethenyl]benzoxazole], for which the “Maximum Permissible Dose” value in the series “Acute Toxicity Test” is “≧10 mg/kg”. Besides, in series [1] (brain), the “Brain Permeability: Brain” value is reported as 4.4 % ID/g or ml. Further, the “Brain Permeability: Plasma” value in series [1] (plasma) was 0.58 % ID/g or ml. The “Relative activity (mutagenicity)” value in series [2] (in the presence of S9mix) is “weak”. In series [2] (reverse mutation test, +S9mix), the “Relative Activity in the presence of S9Mix” value is “minus”. Moreover, in series [2] (reverse mutation test, -S9mix), the “Relative Activity in the absence of S9Mix” value turned out to be 264. Also, the activity at 10 µM on Amyloid β protein 1-40 (setting [4]) was found to be 66.8%; on Amyloid β protein 1-40 (setting [5]) it was 36.4%; at Amyloid β protein 1-40 (setting [6]), 29.7%.

For the compound `OCC(CF)Oc1ccc2nc(/C=C/c3cnc(N4CCCOCC4)s3)oc2c1` (stereo not shown) [THK-766, (E)-6-[(1-fluoromethyl-2-hydroxy)ethoxy]-2-[2-[2-homomorpholinothiazol-5-yl)ethenyl]benzoxazole], the “Binding to (staining of) amyloid β protein in the brain section of an Alzheimer disease patient” value in series [3] is “white space arrow indicates amyloid β protein”. Moreover, in the series “Acute Toxicity Test”, the “Maximum Permissible Dose” value is “≧10 mg/kg”. The figures for the activity at 10 µM on Amyloid β protein 1-40 (setting [4]), on Amyloid β protein 1-40 (setting [5]) and on Amyloid β protein 1-40 (setting [6]) were 61%, 21.5% and 11.2%, respectively.

Consider `OCC(CF)Oc1ccc2nc(/C=C/c3cnc(N4CCCCCC4)s3)oc2c1` (stereo not shown) [THK-765, (E)-6-[(1-fluoromethyl-2-hydroxy)ethoxy]-2-[2-[2-(homopiperidin-1-yl)thiazol-5-yl]ethenyl]benzoxazole], for which the “Maximum Permissible Dose” value in the series “Acute Toxicity Test” was “≧10 mg/kg”. In addition, the activity at 10 µM amounted to 71.2% at Amyloid β protein 1-40 (setting [4]), 41.3% on Amyloid β protein 1-40 (setting [5]) and 23% on Amyloid β protein 1-40 (setting [6]).

The values are drawn from patent publication US7910579B2, “Benzoxazole derivatives” (Tohoku University, priority 2006, dated 2011).
